From a melting point compilation (Tetko et al.; mined from patent text by program, amines drawn as free bases though some values may be those of a salt)

melting point [°C]	Structure (SMILES)
215	C#Cc1cc2cccnc2c(-c2cccc([N+](=O)[O-])c2)n1
360 to 362	COc1ccccc1-n1c(=O)[nH]c2c(C(N)=O)nc(-c3ccnc(O)c3)nc21
133 to 134	Cc1ncccc1CCCC(C)NC(=O)C(O)c1ccccc1 (stereo not drawn)
295 to 297	COc1cc2cc(C(=O)O)oc(=O)c2cc1OC
132 to 134	Cc1cc(O)c(S(=O)CC2CCCCC2)c(=O)o1 (stereo not drawn)
201	O=C(O)CCC1(c2ccc(Cl)c(Cl)c2)CCC(=O)NC1=O (single isomer, unassigned; (+))
156 to 158	CC(C)(CNS(C)(=O)=O)Nc1nc(Cl)ncc1Cl
194 to 195	c1ccc(-c2ccc3nc4c(nc3c2)-c2cccc3cccc-4c23)cc1
98 to 100	O=S(=O)(Nc1cccc(CCOCc2ccc(-c3ccc(C(F)(F)F)cc3)cc2)c1)C(F)(F)F
147	CC(C)(C)OC(=O)N1CCCC1COC(=O)N1CCN(c2cc(N3CCCC3)nc(N3CCCC3)n2)CC1 (single isomer, unassigned; (-))
230 to 233	N#Cc1cnc2c(sc3ccccc32)c1Nc1ccc(Oc2ccccc2)cc1
101 to 102	C[C@H](Cc1cc2c(c(C(N)=O)c1)N(CCCCOCc1ccccc1)CC2)NCCOc1ccccc1OCC(F)(F)F
102 to 103	O=S(=O)(C=Cc1ccccc1)On1nnc2ccccc21
185 to 187	CC(C)CC(NC(=O)c1ccc(CBr)cc1)C(=O)NC(C)(C)C#N (stereo not drawn)
193 to 195	COc1ccc(C(=O)O)c([N+](=O)[O-])c1
106 to 108	COC(=O)CCC1(CCC(=O)OC)c2cc(I)ccc2-c2ccc(I)cc21
102 to 103	O=C1N[C@H](C(=O)NCCO[N+](=O)[O-])CO1
64	CC(=O)c1ccc(C2CC(C)(C)CC(C)(C)C2)c(Cl)c1

melting point [°C]	Structure (SMILES)
117 to 118	COc1ccc(CNc2nc(SC)ncc2C(=O)OCc2ccccn2)cc1Cl
68 to 69	COC(=O)CCc1cnoc1-c1ccc(OC)c(OC)c1
112 to 113	Brc1nccc2ncccc12
72 to 74	CCCCCCCCNc1ccc(NCCCCCCCC)c2c1C(=O)c1ccccc1C2=O
283	COc1ccc(-c2[nH]nc3c2C(=O)c2c(NC(=O)Cc4ccc(N)cc4)cccc2-3)cc1
219 to 221	Cc1nc(N2CCCC2C)c2nc(-c3ccccc3)cc-2[nH]1 (stereo not drawn)
150 to 152	CCOC(=O)CC1OC(=O)c2c(Oc3nc(OC)cc(OC)n3)cccc21 (stereo not drawn)
117 to 118	CC1(C)CC(c2ccc(F)cc2)=C(c2ccc(S(N)(=O)=O)cc2)C1
176 to 178	CCCCCCCCCCCCCCNC(=O)Nc1sc(C(=O)O)c(C)c1C(=O)OC(C)(C)C
144 to 146	CNC(=S)N1CCSC1c1ccccc1OCCN1CCN(c2ccccc2)CC1 (single isomer, unassigned; (-))
95	COC(=O)C1Oc2ccc(F)cc2C(C)(c2ccccc2)O1 (stereo not drawn)
241	N#Cc1ccc(Cn2c(=O)c(C#N)c(N3CCN(C(=O)c4cccs4)CC3)c3cccnc32)cc1
121 to 123	COc1ccc(OC)c(C2OC(=O)c3c(OC)ccc(C)c32)c1 (stereo not drawn)
149 to 151	Cc1cccc(C(=O)Nc2c[nH]nc2C(=O)NCCC#N)c1
118 to 120	COc1cc(C(C)=O)ccc1OCCCN1CCC(c2noc3cc(F)ccc23)CC1
143 to 144	COc1ccc(Br)c(O)c1C(=O)O
167	O=C1CCn2c(Cc3ccc(Cl)cc3)nc3c(Cl)ccc1c32
242 to 244	O=c1c2ccc(Cl)cc2n(Cc2ccccc2)c(=O)n1S(=O)(=O)c1ccc(Cl)cc1

Structure (SMILES)	melting point [°C]
O=C(O)c1cc2ccccc2n1Cc1cc([N+](=O)[O-])cc2[nH]c(=O)c(=O)[nH]c12	> 300
CCOC=Nc1c(S(=O)C(F)(F)F)c(C#N)nn1-c1c(Cl)cc(C(F)(F)F)cc1Cl (stereo not drawn)	63
